The source made the active and inactive calls. No cut-off for these calls is given here. *1 amine or outer side, *2 acyl side, *3 side chain or, on linkers, in order; H or OH if unused. Where a SMILES comes first, the peptide text is derived from it. Bridges are numbered along the chain shown (N, C = ends). Roman numbers before positions name the chains, in order. [ ]: non-standard residue; d: D form. Actinocin(1to9) = Cc1c2oc3c(C)ccc(C(=O)[*:2])c3nc-2c(C(=O)[*:1])c(N)c1=O; NMeV = CN[C@H](C(=O)O)C(C)C; Sar = CNCC(=O)O
Tests used:
A2780 = experiment: Cytotoxicity against human A2780 cells; assay type: functional
Rattus norvegicus = species: Rattus norvegicus; experiment: Stabilization of rat DNA polymerase binding to DNA by gel mobility assay

SMILES	Activity (A2780) [µM]	Activity (Rattus norvegicus)
CC(=O)OC[C@]1(C)[C@@H]2CC[C@]3(C)/C(=C(C)/C=C/C=C(\C)[C@H](CC=C(C)C)OC(C)=O)C(=O)C[C@H]3[C@@]2(C)CC[C@H]1OC(C)=O	27	23%
Cc1c2oc3c(C)ccc(C(=O)N[C@@H]4C(=O)N[C@H](C(C)C)C(=O)N5CCC[C@H]5C(=O)N(C)CC(=O)N(C)[C@@H](C(C)C)C(=O)O[C@@H]4C)c3nc-2c(C(=O)N[C@@H]2C(=O)N[C@H](C(C)C)C(=O)N3CCC[C@H]3C(=O)N(C)CC(=O)N(C)[C@@H](C(C)C)C(=O)O[C@@H]2C)c(N)c1=O [DACTINOMYCIN] (I: T[dV]P[Sar][NMeV] / II: T[dV]P[Sar][NMeV]; ester I:1-I:C, II:1-II:C; linker I:N-II:N via Actinocin(1to9))	0.0017	
CC(C)=C/C=C/C(C)=C/C=C/C(C)=C1\C(=O)C[C@H]2[C@@]3(C)CC[C@@H](O)[C@](C)(CO)[C@@H]3CC[C@]12C [STELLETTIN J]	1.2	8%
CC(C)=C/C=C/C(C)=C/C=C/C(C)=C1\C(=O)C[C@H]2[C@@]3(C)CC[C@@H](O)[C@](C)(C(=O)O)[C@@H]3CC[C@]12C [STELLETTIN K]	0.28	inactive
CC(=O)O[C@@H]1CC[C@@]2(C)[C@@H](CC[C@]3(C)/C(=C(C)/C=C/C=C(\C)C(CC=C(C)C)O[C@@H]4OC[C@@H](O)[C@@H](O)[C@H]4O)C(=O)C[C@@H]23)C1(C)C (some centres undefined) [STELLIFERIN RIBOSIDE]	7.3	29%
